This is an account of results in PubChem BioAssay (NCI).

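Tested at 5 concentrations; 48 h exposure; 96-well plates; endpoints linearly interpolated, else capped at highest concentration. TGI marks complete inhibition of growth.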

The subject of the first assay is SK-MEL-5 melanoma. Nature of the assay: growth of human tumour cells (NCI), 48 h.
With `CN(C)c1ccc(-c2c(C#N)c(N)[nH]c(=S)c2C#N)cc1`, the TGI is greater than 100 µM.

A further assay concerns SN12C renal. Nature of the assay: growth of human tumour cells (NCI), 48 h.
`CC(C)OP(=O)(OC(C)C)C(C(C)C)N(C)/C(N)=N\C1=NC(C(F)(F)F)(C(F)(F)F)N=C(C(C(F)(F)F)C(F)(F)F)O1` (stereo unspecified) yielded a TGI of 10.5 µM.

In the case of `O=c1c2cc(S(=O)(=O)Nc3ccccc3Cl)ccc2ncn1NS(=O)(=O)c1ccc(Br)cc1`, the TGI is greater than 37.5 µM.

`CC1=C(C(=O)Nc2cccc3c2C(=O)NC3=O)CC(C(=O)Nc2cccc3c2C(=O)NC3=O)=C(C)N1` returned a TGI greater than 100 µM.

The compound `CC1C2CC(CC(=O)N2)C1(C)C` (stereo unspecified) had a TGI greater than 100 µM.

`COc1cc(S(=O)(=O)Nc2ccc(-c3csc(N4C(=O)CSC4c4cccs4)n3)cc2)ccc1Cl` (stereo unspecified) showed a TGI of 73.7 µM.

`C[C@H]1[C@H](C)N(Cc2ccccc2)P(=O)(C(O)/C=C/c2ccccc2)N1Cc1ccccc1` (stereo partly specified) displayed a TGI of 8.75 µM.

Turning to `Cc1c2ccncc2cc2c1sc1ccncc12`, the TGI is 16.5 µM.

For the compound `NCCCNCCCNCCCN`, the TGI was greater than 100 µM.

`Cn1nc(Cc2ccc(Cl)cc2)n(N)c1=O` displayed a TGI greater than 100 µM.

Compound `CCc1nnc(CC)n1NCCCC(=O)O` gave a TGI greater than 100 µM.

In turn, `CCOC(=O)NC(C(F)(F)F)(C(F)(F)F)P(=O)(OC(C)C)OC(C)C` showed a TGI greater than 100 µM.

`C/C(=N\N)C(CN(C)C)C(c1ccccc1)c1c(O)c2ccccc2oc1=O` (stereo unspecified) yielded a TGI greater than 100 µM.

As to `CSC1=N[C@H](c2ccccc2)CS1`, the TGI was greater than 100 µM.

For the compound `CN(C)c1ccc(-c2c(C#N)c(N)[nH]c(=S)c2C#N)cc1`, the TGI was greater than 100 µM.

The test system of a further assay is SNB-75 CNS. Nature of the assay: growth of human tumour cells (NCI), 48 h.
`CC(C)OP(=O)(OC(C)C)C(C(C)C)N(C)/C(N)=N\C1=NC(C(F)(F)F)(C(F)(F)F)N=C(C(C(F)(F)F)C(F)(F)F)O1` (stereo unspecified) returned a TGI of 11.9 µM.

`O=c1c2cc(S(=O)(=O)Nc3ccccc3Cl)ccc2ncn1NS(=O)(=O)c1ccc(Br)cc1` showed a TGI greater than 37.5 µM.

The compound `CC1=C(C(=O)Nc2cccc3c2C(=O)NC3=O)CC(C(=O)Nc2cccc3c2C(=O)NC3=O)=C(C)N1` yielded a TGI greater than 100 µM.

Turning to `CC1C2CC(CC(=O)N2)C1(C)C` (stereo unspecified), the TGI was greater than 100 µM.

Turning to `COc1cc(S(=O)(=O)Nc2ccc(-c3csc(N4C(=O)CSC4c4cccs4)n3)cc2)ccc1Cl` (stereo unspecified), the TGI was 40.3 µM.

`C[C@H]1[C@H](C)N(Cc2ccccc2)P(=O)(C(O)/C=C/c2ccccc2)N1Cc1ccccc1` (stereo partly specified) came in with a TGI of 17.9 µM.

Compound `NCCCCNCCCN1CC1` yielded a TGI of 1.92 µM.

The compound `Cc1c2ccncc2cc2c1sc1ccncc12` gave a TGI of 15.4 µM.

`CCOC(=O)c1nc2ccc(C(F)(F)F)cc2nc1NCc1ccc(Cl)c(Cl)c1` gave a TGI of 51.3 µM.

In the case of `Cn1nc(Cc2ccc(Cl)cc2)n(N)c1=O`, the TGI is greater than 100 µM.

The compound `CCc1nnc(CC)n1NCCCC(=O)O` showed a TGI greater than 100 µM.

On to `CCOC(=O)NC(C(F)(F)F)(C(F)(F)F)P(=O)(OC(C)C)OC(C)C`, for which the TGI was greater than 100 µM.

In turn, `C/C(=N\N)C(CN(C)C)C(c1ccccc1)c1c(O)c2ccccc2oc1=O` (stereo unspecified) gave a TGI greater than 100 µM.

For `CSC1=N[C@H](c2ccccc2)CS1`, the TGI was greater than 100 µM.

`CN(C)c1ccc(-c2c(C#N)c(N)[nH]c(=S)c2C#N)cc1`: the TGI is greater than 100 µM.

A further assay has as its system SW-620 colon. Nature of the assay: growth of human tumour cells (NCI), 48 h.
`CC(C)OP(=O)(OC(C)C)C(C(C)C)N(C)/C(N)=N\C1=NC(C(F)(F)F)(C(F)(F)F)N=C(C(C(F)(F)F)C(F)(F)F)O1` (stereo unspecified) registered a TGI of 5.48 µM.

As to `O=c1c2cc(S(=O)(=O)Nc3ccccc3Cl)ccc2ncn1NS(=O)(=O)c1ccc(Br)cc1`, the TGI was greater than 37.5 µM.

As to `CC1=C(C(=O)Nc2cccc3c2C(=O)NC3=O)CC(C(=O)Nc2cccc3c2C(=O)NC3=O)=C(C)N1`, the TGI is greater than 100 µM.

The compound `CC1C2CC(CC(=O)N2)C1(C)C` (stereo unspecified) showed a TGI greater than 100 µM.

As for `COc1cc(S(=O)(=O)Nc2ccc(-c3csc(N4C(=O)CSC4c4cccs4)n3)cc2)ccc1Cl` (stereo unspecified), the TGI is 68.5 µM.

`C[C@H]1[C@H](C)N(Cc2ccccc2)P(=O)(C(O)/C=C/c2ccccc2)N1Cc1ccccc1` (stereo partly specified): the TGI was greater than 25 µM.

`NCCCCNCCCN1CC1` showed a TGI greater than 100 µM.

On to `Cc1c2ccncc2cc2c1sc1ccncc12`, for which the TGI stood at 16.7 µM.

On to `CCOC(=O)c1nc2ccc(C(F)(F)F)cc2nc1NCc1ccc(Cl)c(Cl)c1`, for which the TGI is greater than 100 µM.

As to `NCCCNCCCNCCCN`, the TGI is greater than 100 µM.

As for `Cn1nc(Cc2ccc(Cl)cc2)n(N)c1=O`, the TGI is greater than 100 µM.

In the case of `CCc1nnc(CC)n1NCCCC(=O)O`, the TGI was greater than 100 µM.

On to `CCOC(=O)NC(C(F)(F)F)(C(F)(F)F)P(=O)(OC(C)C)OC(C)C`, for which the TGI is greater than 100 µM.

`C/C(=N\N)C(CN(C)C)C(c1ccccc1)c1c(O)c2ccccc2oc1=O` (stereo unspecified): the TGI was greater than 100 µM.

As for `CSC1=N[C@H](c2ccccc2)CS1`, the TGI is greater than 100 µM.

`CN(C)c1ccc(-c2c(C#N)c(N)[nH]c(=S)c2C#N)cc1` had a TGI greater than 100 µM.

The next assay has as its system T-47D breast. Nature of the assay: growth of human tumour cells (NCI), 48 h.
`CC(C)OP(=O)(OC(C)C)C(C(C)C)N(C)/C(N)=N\C1=NC(C(F)(F)F)(C(F)(F)F)N=C(C(C(F)(F)F)C(F)(F)F)O1` (stereo unspecified) had a TGI of 31.3 µM.

`CC1=C(C(=O)Nc2cccc3c2C(=O)NC3=O)CC(C(=O)Nc2cccc3c2C(=O)NC3=O)=C(C)N1`: the TGI is greater than 100 µM.

Compound `CC1C2CC(CC(=O)N2)C1(C)C` (stereo unspecified) gave a TGI greater than 100 µM.

Regarding `C[C@H]1[C@H](C)N(Cc2ccccc2)P(=O)(C(O)/C=C/c2ccccc2)N1Cc1ccccc1` (stereo partly specified), the TGI is 22.9 µM.

The compound `NCCCCNCCCN1CC1` returned a TGI of 3.46 µM.

In turn, `Cc1c2ccncc2cc2c1sc1ccncc12` gave a TGI of 7.44 µM.

For `CCOC(=O)c1nc2ccc(C(F)(F)F)cc2nc1NCc1ccc(Cl)c(Cl)c1`, the TGI was greater than 100 µM.

`NCCCNCCCNCCCN` gave a TGI greater than 100 µM.

Compound `Cn1nc(Cc2ccc(Cl)cc2)n(N)c1=O` returned a TGI greater than 100 µM.

`CSC1=N[C@H](c2ccccc2)CS1`: the TGI was greater than 100 µM.

The test system of another assay is U251 CNS. Nature of the assay: growth of human tumour cells (NCI), 48 h.
As for `CC(C)OP(=O)(OC(C)C)C(C(C)C)N(C)/C(N)=N\C1=NC(C(F)(F)F)(C(F)(F)F)N=C(C(C(F)(F)F)C(F)(F)F)O1` (stereo unspecified), the TGI came to 11.2 µM.

`O=c1c2cc(S(=O)(=O)Nc3ccccc3Cl)ccc2ncn1NS(=O)(=O)c1ccc(Br)cc1`: the TGI was greater than 37.5 µM.

`CC1=C(C(=O)Nc2cccc3c2C(=O)NC3=O)CC(C(=O)Nc2cccc3c2C(=O)NC3=O)=C(C)N1` had a TGI greater than 100 µM.

The compound `CC1C2CC(CC(=O)N2)C1(C)C` (stereo unspecified) came in with a TGI greater than 100 µM.

Regarding `C[C@H]1[C@H](C)N(Cc2ccccc2)P(=O)(C(O)/C=C/c2ccccc2)N1Cc1ccccc1` (stereo partly specified), the TGI was found to be 10 µM.

The compound `NCCCCNCCCN1CC1` had a TGI of 28.9 µM.

In the case of `Cc1c2ccncc2cc2c1sc1ccncc12`, the TGI came out at 14.7 µM.

Consider `CCOC(=O)c1nc2ccc(C(F)(F)F)cc2nc1NCc1ccc(Cl)c(Cl)c1`, for which the TGI was greater than 100 µM.

Regarding `NCCCNCCCNCCCN`, the TGI was greater than 100 µM.

`Cn1nc(Cc2ccc(Cl)cc2)n(N)c1=O` registered a TGI greater than 100 µM.

Turning to `CCc1nnc(CC)n1NCCCC(=O)O`, the TGI was greater than 100 µM.

The compound `CCOC(=O)NC(C(F)(F)F)(C(F)(F)F)P(=O)(OC(C)C)OC(C)C` returned a TGI greater than 100 µM.

The compound `C/C(=N\N)C(CN(C)C)C(c1ccccc1)c1c(O)c2ccccc2oc1=O` (stereo unspecified) came in with a TGI greater than 100 µM.

The compound `CSC1=N[C@H](c2ccccc2)CS1` had a TGI greater than 100 µM.

In turn, `CN(C)c1ccc(-c2c(C#N)c(N)[nH]c(=S)c2C#N)cc1` yielded a TGI greater than 100 µM.
